One block for each compound: values may come before it.
What was measured:
[1] = tested on: Bulges-TB1 (RNA, G4) UUGUGGUGGGUGGGUGGGU; test: fluorescence enhancement
[2] = tested on: 4-WJ (RNA, junction) GCGC/UUUAGC/GAGGUCCU/AGAA; test: fluorescence enhancement; settings: 40 mM K+; 20 mM Tris-HCl pH 7.0; 2 µM CyT, 4 µM RNA; very weak fluorescence
[3] = tested on: HP18 (HP-18) (RNA, hairpin) CAGUACAGAUCUGUACUG; test: fluorescence titration, 1:1 fit; settings: 40 mM K+; 20 mM Tris-HCl pH 7.0, 25 °C; 2 µM CyT
[4] = tested on: tRNA-Ala fragment (RNA, G4) GGGGGUGUAGCUCAGUGGUAGAGCGCGUGC; test: fluorescence enhancement
[5] = tested on: 3-WJ (RNA, junction) AGCGCAACCCC/UCGUCAGCU/GGGACGACGU; test: fluorescence enhancement; settings: 40 mM K+; 20 mM Tris-HCl pH 7.0; 2 µM CyT, 4 µM RNA; very weak fluorescence
[6] = tested on: Tel22 (RNA, G4) AGGGUUAGGGUUAGGGUUAGGG; test: fluorescence titration, 1:1 fit; settings: 40 mM K+; 20 mM Tris-HCl pH 7.0, 25 °C; 2 µM CyT
[7] = tested on: Tel22-mut (RNA, single strand) AGUGUUAGUGUUAGUGUUAGUG; test: fluorescence enhancement; settings: 40 mM K+; 20 mM Tris-HCl pH 7.0; 2 µM CyT, 4 µM RNA; very weak fluorescence
[8] = tested on: Spinach (RNA, aptamer) GCAGCCGGCUUGUUGAGUAGAGUGUGAGCUCCGUAACUGGUCGCGUC/GACGCGACCGAAUGAAAUGGUGAAGGACGGGUCCAGCCGGCUGC; test: fluorescence enhancement
[9] = tested on: NRAS-mut (RNA, single strand) GUGAGUUGCGUGUCUGUG; test: fluorescence enhancement; settings: 40 mM K+; 20 mM Tris-HCl pH 7.0; 2 µM CyT, 4 µM RNA; very weak fluorescence
[10] = tested on: dsNC (RNA, duplex) UUGUGCUACCAGGAGUCUG/CAGACUCCUGGUAGCACAA; test: fluorescence titration, 1:1 fit; settings: 40 mM K+; 20 mM Tris-HCl pH 7.0, 25 °C; 2 µM CyT
[11] = tested on: BCL-2 (RNA, G4) AGGGGGCCGUGGGGUGGGAGCUGGGG; test: fluorescence titration, 1:1 fit; settings: 40 mM K+; 20 mM Tris-HCl pH 7.0, 25 °C; 2 µM CyT
[12] = tested on: ssAf17 (RNA, single strand) CUGAGUUGUAUAUAUUCG; test: fluorescence titration, 1:1 fit; settings: 40 mM K+; 20 mM Tris-HCl pH 7.0, 25 °C; 2 µM CyT
[13] = tested on: TRF2 (RNA, G4) CGGGAGGGCGGGGAGGGC; test: fluorescence titration, 1:1 fit; settings: 40 mM K+; 20 mM Tris-HCl pH 7.0, 25 °C; 2 µM CyT
[14] = tested on: tRNA-Cys fragment (RNA, G4) GGGGGUAUAGCUCAGUGGUAGAGCAUUUGA; test: fluorescence enhancement
[15] = tested on: ssAf22 (RNA, single strand) UGAGCUUAAUUGUAUAUAUUCG; test: fluorescence titration, 1:1 fit; settings: 40 mM K+; 20 mM Tris-HCl pH 7.0, 25 °C; 2 µM CyT
[16] = tested on: VEGF (RNA, G4) GGAGGAGGGGGAGGAGGA; test: fluorescence titration, 1:1 fit; settings: 40 mM K+; 20 mM Tris-HCl pH 7.0, 25 °C; 2 µM CyT
[17] = tested on: NRAS (RNA, G4) GGGAGGGGCGGGUCUGGG; test: fluorescence titration, 1:1 fit; settings: 40 mM K+; 20 mM Tris-HCl pH 7.0, 25 °C; 2 µM CyT
[18] = tested on: ssAf17 (RNA, single strand) CUGAGUUGUAUAUAUUCG; test: fluorescence enhancement; settings: about 100-fold enhancement
[19] = tested on: VEGF (RNA, G4) GGAGGAGGGGGAGGAGGA; test: fluorescence enhancement; settings: about 200-fold enhancement
[20] = tested on: Tel22 (RNA, G4) AGGGUUAGGGUUAGGGUUAGGG; test: fluorescence enhancement; settings: about 290-fold enhancement
[21] = tested on: HP18 (HP-18) (RNA, hairpin) CAGUACAGAUCUGUACUG; test: fluorescence enhancement; settings: about 330-fold enhancement

binding ([1]; 40 mM K+, 20 mM Tris-HCl pH 7.0, 2 µM CyT, 4 µM RNA, about 1800-fold enhancement): yes
binding [2]: weak
binding constant [3]: (2.89 ± 0.28) × 10^4 M^-1
binding ([4]; 40 mM K+, 20 mM Tris-HCl pH 7.0, 2 µM CyT, 4 µM RNA, about 200-fold enhancement): yes
binding [5]: weak
binding constant [6]: (1.17 ± 0.37) × 10^5 M^-1
binding [7]: weak
binding ([8]; 40 mM K+, 20 mM Tris-HCl pH 7.0, 2 µM CyT, 4 µM RNA, about 327-fold enhancement): yes
binding [9]: weak
binding constant [10]: (2.42 ± 0.25) × 10^4 M^-1
binding constant [11]: (1.94 ± 0.29) × 10^5 M^-1
binding constant [12]: (4.40 ± 0.38) × 10^4 M^-1
binding constant [13]: (2.81 ± 0.63) × 10^5 M^-1
binding ([14]; 40 mM K+, 20 mM Tris-HCl pH 7.0, 2 µM CyT, 4 µM RNA, about 205-fold enhancement): yes
binding constant [15]: (4.03 ± 0.36) × 10^4 M^-1
binding constant [16]: (1.44 ± 0.29) × 10^5 M^-1
binding constant [17]: (3.49 ± 0.77) × 10^5 M^-1
SMILES: CC(=Cc1sc2ccc3ccccc3c2[n+]1CCCS(=O)(=O)[O-])C=C1Sc2ccc3ccccc3c2N1CCCS(=O)(=O)O

binding ([1]; about 570-fold enhancement): yes
binding [18]: yes
binding ([4]; about 230-fold enhancement): yes
binding [19]: yes
binding [20]: yes
binding ([8]; about 200-fold enhancement): yes
binding ([14]; about 150-fold enhancement): yes
binding [21]: yes
SMILES: CN1C(=Cc2cc[n+](C)c3ccccc23)Sc2ccccc21

— article PMC4787783 (2015)
